{
  "source": "paper PMC11111408",
  "about": "“Concurrent inhibition of oncogenic and wild-type RAS-GTP for cancer therapy” (Nature, 2024)",
  "key": {"[1]": {"molecular_target": "T1, WT KRAS (Homo sapiens, UniProt P01116+P62937)", "T1 construct": "His6-TEV (N); made in house; host or cells: E. coli BL21(DE3)", "assay": "KRAS–RALGDS RID binding inhibition in vitro", "format": "biochemical", "design": "TR-FRET of recombinant KRAS and RALGDS RID: scale not given here", "conditions": "for TR-FRET of recombinant KRAS and RALGDS RID: single replicates"}, "[2]": {"molecular_target": "NRAS^Q61L (Homo sapiens, UniProt P01111+P62937, Q61L)", "assay": "Biochemical RAS–RAF (BRAF RBD) disruption, TR-FRET", "conditions": "(95% CI)", "description": "(§1) Time-resolved fluorescence resonance energy transfer (TR-FRET) was used as previously described to assess disruption of the interactions between wild-type RAS or the mutant oncogenic RAS proteins and the RAS-binding domain of BRAF, and to assess the induction of interactions between the RAS proteins and CYPA[12]."}, "[3]": {"molecular_target": "T2, NRAS WT (Homo sapiens, UniProt P01111+P62937)", "assay": "Biochemical RAS–RAF (BRAF RBD) disruption, TR-FRET", "description": "as §1"}, "[4]": {"molecular_target": "HRAS^G13R (Homo sapiens, UniProt P01112+P62937, G13R)", "assay": "Biochemical RAS–RAF (BRAF RBD) disruption, TR-FRET", "conditions": "HRAS^G13R; BRAF RBD; (95% CI); read-out: Biochemical RAS-RAF Disruption EC50", "description": "as §1"}, "[5]": {"molecular_target": "KRAS^Q61H (Homo sapiens, UniProt P01116+P62937, Q61H)", "assay": "Biochemical RAS–RAF (BRAF RBD) disruption, TR-FRET", "description": "as §1"}, "[6]": {"molecular_target": "NRAS^Q61R (Homo sapiens, UniProt P01111+P62937, Q61R)", "assay": "Biochemical RAS–RAF (BRAF RBD) disruption, TR-FRET", "conditions": "(95% CI)", "description": "as §1"}, "[7]": {"molecular_target": "KRAS^G13D (Homo sapiens, UniProt P01116+P62937, G13D)", "assay": "Biochemical RAS–RAF (BRAF RBD) disruption, TR-FRET", "description": "as §1"}, "[8]": {"molecular_target": "NRAS^Q61K (Homo sapiens, UniProt P01111+P62937, Q61K)", "assay": "Biochemical RAS–RAF (BRAF RBD) disruption, TR-FRET", "description": "as §1"}, "[9]": {"molecular_target": "KRAS^G12A (Homo sapiens, UniProt P01116+P62937, G12A)", "assay": "Biochemical RAS–RAF (BRAF RBD) disruption, TR-FRET", "description": "as §1"}, "[10]": {"molecular_target": "KRAS^G13C (Homo sapiens, UniProt P01116+P62937, G13C)", "assay": "Biochemical RAS–RAF (BRAF RBD) disruption, TR-FRET", "description": "as §1"}, "[11]": {"molecular_target": "T2, NRAS WT", "assay": "RAS binding affinity of compound-bound CYPA (Kd2), SPR", "conditions": "steady state SPR, (95% CI)"}, "[12]": {"molecular_target": "KRAS^G12S (Homo sapiens, UniProt P01116+P62937, G12S)", "assay": "Cellular RAS–CYPA binding (tri-complex formation), nano-BRET in U2OS cells", "format": "cell-based", "design": "expressed in transfected cells; host or cells: U2OS PPIA-KO", "conditions": "(95% CI)", "description": "KRAS4B, or other small GTPases, containing the indicated mutations were cloned in pNLF-N or pHTN plasmids for expression with an N-terminal nanoluciferase or HaloTag fusion, respectively. […] The following day, the cells were collected by Trypsin and reseeded in a white tissue culture-treated 96-well plate in OptiMem phenol red-free medium (Gibco) containing 4% FBS and a 1:1,000 dilution of NanoBRET 618 HaloTag ligand (Promega). For endpoint concentration response curves, vivazine nanoluciferase substrate was added to 1× concentration in OptiMem phenol red-free medium with 4% FBS. Varying concentrations of inhibitor were added and incubated for 1 or 4 h before the nano-BRET signal was measured on a Perkin Elmer Envision plate reader. For kinetic assays, endurazine nanoluciferase substrate was used in place of vivazine, and the plate was placed in a Cytation5 multi-mode reader pre-equilibrated to 37 °C and 5% CO2."}, "[13]": {"system": "AsPC-1 and NCI-H441 cells", "assay": "pERK (MSD) and proliferation (CTG) in AsPC-1 and NCI-H441 cells, CYPA inhibitor co-treatment or PPIA KO", "format": "cell-based, human", "conditions": "for Proliferation, RMC-7977 with or without CYPA inhibitor (panel title not shown): ASPC1, RMC-7977 alone"}},
  "note": "Where “and” joins values, the source holds several entries; their conditions need not be identical. Equal values may be shown once.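 Wherever Proliferation inhibition with CYPA inhibitor competition is given: luminescence as % of CYPA inhibitor-only control with 3 mM sanglifehrin A competitor.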",
  "data": [
    {"smiles": "CCn1c(-c2cc(N3CCN(C4CC4)CC3)cnc2[C@H](C)OC)c2c3cc(ccc31)-c1csc(n1)C[C@H](NC(=O)[C@H]1[C@@H]3COC[C@@H]31)C(=O)N1CCC[C@H](N1)C(=O)OCC(C)(C)C2", "note": "[RMC-7977]", "values": [
      {"measurement": "TR-FRET of recombinant KRAS and RALGDS RID", "setting": "[1]; RMC-7977 0.005 nM with CYPA", "value": "1.077 and 1.051 and 1.011 and 0.9577"},
      {"measurement": "TR-FRET of recombinant KRAS and RALGDS RID", "setting": "[1]; RMC-7977 0.046 nM with CYPA", "value": "0.9855 and 0.9772 and 0.9315 and 0.827"},
      {"measurement": "TR-FRET of recombinant KRAS and RALGDS RID", "setting": "[1]; RMC-7977 0.412 nM with CYPA", "value": "0.9473 and 0.8792 and 0.8105 and 0.8965"},
      {"measurement": "TR-FRET of recombinant KRAS and RALGDS RID", "setting": "[1]; RMC-7977 1.235 nM with CYPA", "value": "0.966 and 0.9012 and 0.7562 and 0.8255"},
      {"measurement": "TR-FRET of recombinant KRAS and RALGDS RID", "setting": "[1]; RMC-7977 3.704 nM with CYPA", "value": "0.755 and 0.7635 and 0.8193 and 0.729"},
      {"measurement": "TR-FRET of recombinant KRAS and RALGDS RID", "setting": "[1]; RMC-7977 11.111 nM with CYPA", "value": "0.531 and 0.5523 and 0.5275 and 0.6425"},
      {"measurement": "TR-FRET of recombinant KRAS and RALGDS RID", "setting": "[1]; RMC-7977 33.333 nM with CYPA", "value": "0.3432 and 0.2545 and 0.2295 and 0.2898"},
      {"measurement": "TR-FRET of recombinant KRAS and RALGDS RID", "setting": "[1]; RMC-7977 100.000 nM with CYPA", "value": "0.19 and 0.03225 and 0.05775 and 0.042"},
      {"measurement": "IC50", "setting": "[1]; recombinant, with CYPA", "value": 14, "unit": "nM"},
      {"measurement": "EC50", "setting": "[2]", "value": 145, "unit": "nM"},
      {"measurement": "EC50", "setting": "[3]", "value": 57.7, "unit": "nM"},
      {"measurement": "EC50", "setting": "[4]", "value": 23.7, "unit": "nM"},
      {"measurement": "EC50", "setting": "[5]", "value": 47.7, "unit": "nM"},
      {"measurement": "EC50", "setting": "[6]", "value": 181, "unit": "nM"},
      {"measurement": "EC50", "setting": "[7]", "value": 142, "unit": "nM"},
      {"measurement": "EC50", "setting": "[8]", "value": 53.9, "unit": "nM"},
      {"measurement": "EC50", "setting": "[9]", "value": 102, "unit": "nM"},
      {"measurement": "EC50", "setting": "[10]", "value": 49.7, "unit": "nM"},
      {"measurement": "Kd", "setting": "[11]", "value": 101, "unit": "nM"},
      {"measurement": "EC50", "setting": "[12]", "value": 2.24, "unit": "nM"},
      {"measurement": "Proliferation inhibition with CYPA inhibitor competition", "setting": "[13]; ASPC1, RMC-7977 0.0152 nM", "value": 90.9654},
      {"measurement": "pERK signal remaining (% of control) with CYPA inhibitor competition", "setting": "[13]; ASPC1, RMC-7977 0.0152 nM", "value": "120.616 and 135.308 and 125.91 and 115.107"},
      {"measurement": "Proliferation inhibition with CYPA inhibitor competition", "setting": "[13]; ASPC1, RMC-7977 0.0457 nM", "value": 85.8573},
      {"measurement": "pERK signal remaining (% of control) with CYPA inhibitor competition", "setting": "[13]; ASPC1, RMC-7977 0.0457 nM", "value": "139.301 and 149.714 and 121.136 and 102.253"},
      {"measurement": "Proliferation inhibition with CYPA inhibitor competition", "setting": "[13]; ASPC1, RMC-7977 0.41 nM", "value": "72.6185 and 81.3976"},
      {"measurement": "pERK signal remaining (% of control) with CYPA inhibitor competition", "setting": "[13]; ASPC1, RMC-7977 0.41 nM", "value": "110.343 and 126.372 and 94.9104 and 97.1292"},
      {"measurement": "Proliferation inhibition with CYPA inhibitor competition", "setting": "[13]; ASPC1, RMC-7977 3.70 nM", "value": "35.3653 and 35.6028"},
      {"measurement": "Proliferation inhibition with CYPA inhibitor competition", "setting": "[13]; ASPC1, RMC-7977 11.11 nM", "value": "15.7797 and 21.3117"},
      {"measurement": "Proliferation inhibition with CYPA inhibitor competition", "setting": "[13]; ASPC1, RMC-7977 33.33 nM", "value": "8.746 and 8.58"},
      {"measurement": "Proliferation inhibition with CYPA inhibitor competition", "setting": "[13]; ASPC1, RMC-7977 100.00 nM", "value": "4.002 and 7.934"},
      {"measurement": "Proliferation, RMC-7977 with or without CYPA inhibitor (panel title not shown)", "setting": "[13]; 0.0152 nM, 15.2 pM", "value": 91.3484},
      {"measurement": "Proliferation, RMC-7977 with or without CYPA inhibitor (panel title not shown)", "setting": "[13]; 0.0457 nM, 45.7 pM", "value": 92.4729},
      {"measurement": "Proliferation, RMC-7977 with or without CYPA inhibitor (panel title not shown)", "setting": "[13]; 0.41 nM, 0.00041 µM", "value": 80.9316},
      {"measurement": "Proliferation, RMC-7977 with or without CYPA inhibitor (panel title not shown)", "setting": "[13]; 3.70 nM, 0.0037 µM", "value": 50.3479},
      {"measurement": "Proliferation, RMC-7977 with or without CYPA inhibitor (panel title not shown)", "setting": "[13]; 11.11 nM, 0.01111 µM", "value": 24.3804},
      {"measurement": "Proliferation, RMC-7977 with or without CYPA inhibitor (panel title not shown)", "setting": "[13]; 33.33 nM, 0.03333 µM", "value": 12.3077},
      {"measurement": "Proliferation, RMC-7977 with or without CYPA inhibitor (panel title not shown)", "setting": "[13]; 100.00 nM, 0.1 µM", "value": 7.228},
      {"measurement": "Proliferation, RMC-7977 with or without CYPA inhibitor (panel title not shown)", "setting": "[13]; 300.00 nM, 0.3 µM", "value": 13.3948}
    ]}
  ]
}
